Assays:
DSS-treated FVB mice = assay: Acute colitis (acute Crohn-like disease) induced by DSS 2% in mice; assay type: in vivo; conditions: acute model
Protocol: FIG. 5. TNF-α levels in mice treated with DSS alone or DSS+comp 4. Untr=Untreated; DSS=Mice treated with DSS alone; DSS comp 4=Mice treated with DSS and comp 4;=Mice treated comp 4 alone.
In mice induced for acute Crohn's disease, modifications of epithelial permeability of the intestine were determined by measuring intestinal transmembrane resistance using the Ussing chamber. For this purpose, 2-months old FVB mice were administered dextran sulfate sodium (DSS) 2% in the drinking water for 7 days (Wirtz et al, 2007). […] Eventually, the serum levels of the inflammatory cytokine TNF-α were measured in mice treated with DSS alone or with DSS+4.

[1] = test system: LPS/GalN-induced shock in FVB mice; assay: LPS/galactosamine-induced shock in mice; assay type: in vivo; conditions: LPS 5 μg/mouse + GalN 40 mg/mouse i.p., compound 4 25 μg/kg (0.5 μg/mouse) p.o.
Protocol: FIG. 4. Protection afforded by comp 4 in LPS-induced shock in mice. Untr=untreated; LPSGalN=Mice treated with LPS/GalN alone; LPSGalN Comp 4=Mice treated with LPS/GalN+Comp 4=Mice treated with Comp 4 alone.
Compound 4 was tested in LPS/galactosamine (GalN)-induced shock in mice. LPS shock was induced in 2-months old FVB mice through intraperitoneal (i.p). injection of 5 μg LPS/mouse (LPS from Salmonella enterica abortus equi) and 40 mg/mouse GalN (LPS/GalN).

Caco-2 enterocytes = assay: Doxorubicin-induced injury of Caco-2 enterocytes (ROS in culture medium); assay type: cell-based; conditions: Caco-2 monolayer, 3 μM doxorubicin + compound 4
Protocol: FIG. 10. Measurement of ROS in the cell culture medium of untreated enterocytes or enterocytes treated with doxorubicin+compound 4. Ctrl=Untreated (control) cells; Doxo=Cells treated with doxorubicin alone; Doxo comp 4=Cells treated with doxorubicin and compound 4.
Compound 4 has shown protective efficacy also in an in vitro model of chemotherapy-induced injury of enterocytes. In this model, a monolayer of Caco-2 enterocytes was treated with 3 μM doxorubicin alone or doxorubicin and 4.

[2] = test system: ovalbumin-treated C57B1/6 mice; assay: Ovalbumin mouse model of asthma; assay type: in vivo
From the text: FIG. 8. Serum levels of IL-4, IL-5 and IL-10 in untreated mice or mice treated with ovalbumin+comp 4. Untr=Untreated mice; comp 4=Mice treated with comp 4 alone; OVA=Mice treated with ovalbumin alone; comp 4+OVA=Mice treated with comp 4 and ovalbumin.
FIG. 9. BALF levels of IL-4 and IL-5 in untreated mice or mice treated with ovalbumin+compound 4. Untr=Untreated mice; comp 4=Mice treated with comp 4 alone; OVA=Mice treated with ovalbumin alone; comp 4+OVA=Mice treated with comp 4 and ovalbumin.
Compound 4 was tested in a mouse model of asthma where glucose had already been shown therapeutic efficacy. For this purpose, 10 male C57B1/6 mice were immunized intraperitoneally with 100 μg of ovalbumin (grade V) suspended in 500 μg Al(OH)3. Another group of 10 animals was treated the same way and, in addition, also with compound 4 (25 μg/kg) administered orally. One week after the first immunization, the same treatments were repeated. Two weeks after the first immunization, the first group of animals was challenged for 25 min with an aerosol of 5% (wt/vol) ovalbumin every day, for 5 consecutive days, while the other group received aerosolized ovalbumin plus compound 4 (25 μg/kg).
A hallmark of inflammatory damage to the lung is the development of high-permeability edema, characterized by high protein content in the edema fluid. Indeed, in the lungs of ovalbumin-exposed mice the protein concentration in the BALF was markedly high (0.729 mg/ml), witnessing an important damage to the lungs of these animals. On the other hand, the protein concentration in the BALF of ovalbumin+4-treated animals was similar to that of untreated animals (0.394 mg/ml).
Eventually, also the cytokine levels in the sera and BALFs of ovalbumin- or ovalbumin+compound 4-treated animals were measured. The levels of the cytokines IL-5 and IL-4, which are pivotal in the pathogenesis of asthmatic disease, were elevated in both sera and BALF from ovalbumin-treated mice, but normal in ovalbumin+4-treated animals.

[3] = test system: mice treated with doxorubicin; assay: Acute doxorubicin-induced enterocyte injury in mice; assay type: in vivo; conditions: doxorubicin 27 mg/kg i.p. + compound 4 25 μg/kg orally; 72 h
Protocol: FIG. 11. Serum levels of KC in untreated mice or mice submitted to acute treatment with doxorubicin or chronic treatment with doxorubicin and 5-fluorouracil. Untr=Untreated; Doxo 27 mg=Mice submitted to acute treatment with doxorubicin; Doxo 27 mg comp 4=Mice submitted to acute treatment with doxorubicin and concomitant p.o. administration of comp 4; Doxo cron=Mice submitted to chronic treatment with doxorubicin and 5-fluoruracil; Doxo cron comp 4=Mice submitted to chronic treatment with doxorubicin and 5-fluoruracil and concomitant p.o. administration of compound 4.
FIG. 12. Histology of the epithelium of the small intestine in mice after acute treatment with doxorubicin (DOXO) or acute treatment with doxorubicin and concomitant administration of compound 4 (comp 4+DOXO).
For the first model, doxorubicin was administered to mice by intraperitoneal injection (27 mg/kg). Some of the mice were administered at the same time compound 4 (25 μg/kg orally). Recovery of the blood for the determination of circulating KC levels and subsequent sacrifice of the animals were performed at 72 h after treatment.

DSS-treated mice = assay: Chronic Crohn-like disease induced by 4 cycles of DSS 2% in mice; assay type: in vivo; conditions: chronic model
From the text: FIG. 6. Colon length in untreated mice or mice treated with DSS+comp 4. Untr=Untreated; DSS=Mice treated with DSS alone; DSS comp 4=Mice treated with DSS and comp 4;=Mice treated comp 4 alone.
FIG. 7. TNF-α content in the protein extract of the colon of untreated mice or mice treated with DSS+comp 4. Untr=Protein extract from colon of untreated mice; DSS=Protein extract from colon of mice treated with DSS alone; DSS comp 4=Protein extract from colon of mice treated with DSS+comp 4;=Protein extract from colon of mice treated with comp 4 alone.
Chronic Crohn-like disease was induced in mice by administration of DSS 2% for 4 cycles, with each cycle consisting in exposition to DSS 2% for 7 days, followed by 14 days of regular water. In mice that were administered also compound 4, last exposition of DSS was followed by p.o. administration of compound 4 at 25 μg/kg, 4 times/week for 3 weeks.
One hallmark of the chronic Crohn's disease model is the shortening of the colon.
Another parameter that was measured in this setting was the TNF-α content in the protein extract of the colon of mice. DSS 2% alone led to a dramatic increase of the TNF-α levels in the protein extract, while co-treatment with compound 4 led to normalization of these levels.

Q: How did the “Serum levels of TNF-α (increase induced by DSS 2%)” value (DSS-treated FVB mice; DSS 2% + compound 4) turn out when CN(C)c1cccc2c(S(=O)(=O)NCC[C@H]3O[C@H](CO)[C@@H](O)[C@H](O)[C@H]3O)cccc12 [Compound 4, 5-(Dimethylamino)-N-[2′-(α-D-glucopyranosyl)ethyl]-1-naphthalenesulphonamide] was run?
A: strongly inhibited

Q: What about the Intestinal transmembrane resistance (DSS-treated FVB mice; DSS 2% in drinking water 7 days + compound 4, Ussing chamber) of the same compound?
A: 49 Ω × cm^2

Q: What about the “Protection against LPS/GalN-induced shock” value [1] of the same compound?
A: full protection

Q: And the “reactive oxygen species (ROS) in the cell culture medium” value (Caco-2 enterocytes)?
A: complete inhibition

Q: What about the “Protection against ovalbumin inflammation” value ([2]; oral administration of compound 4 during aerosol ovalbumin challenge (data not shown)) of the same compound?
A: protects the ovalbumin inflammation analogously to the aerosol challenge

Q: What about the “IL-4 levels in BALF” value ([2]; ovalbumin + compound 4) of the same compound?
A: normal

Q: And the “IL-4 levels in sera” value ([2]; ovalbumin + compound 4)?
A: normal

Q: And the “IL-5 levels in BALF” value ([2]; ovalbumin + compound 4)?
A: normal

Q: What about the “IL-5 levels in sera” value ([2]; ovalbumin + compound 4) of the same compound?
A: normal

Q: What about the “IL-10 levels in sera” value ([2]; ovalbumin + compound 4) of the same compound?
A: greatly increased

Q: And the “protein concentration in the BALF” value ([2]; ovalbumin + compound 4 (25 μg/kg))?
A: 0.394 mg/mL

Q: What about the “eosinophils in BALF” value ([2]; ovalbumin + compound 4 (25 μg/kg; oral at immunization, aerosol at challenge)) of the same compound?
A: 127 cells/ml

Q: What about the “Histology of the epithelium of the small intestine” value [3] of the same compound?
A: normal morphology

Q: What about the “circulating KC levels” value [3] of the same compound?
A: strongly reduced

Q: And the Intestinal transmembrane resistance (DSS-treated mice; 4 cycles DSS 2% + compound 4 25 μg/kg p.o. 4 times/week for 3 weeks)?
A: 47 Ω × cm^2

Q: What about the “TNF-α content in the protein extract of the colon” value (DSS-treated mice; DSS 2% + compound 4) of the same compound?
A: normalization

Q: What about the “mean length of the colon” value (DSS-treated mice; DSS 2% + compound 4) of the same compound?
A: 11.55 cm

Source: US20110112184A1, “COMPOUNDS WITH GLYCIDIC STRUCTURE ACTIVE IN THE THERAPY OF SYSTEMIC AND LOCAL INFLAMMATION” (priority 2008, published 2011)
